The source made the active and inactive calls. No cut-off for these calls is given here.
Columns and labels:
HCC1806 [1] = experiment: Induction of apoptosis in human HCC1806 cells assessed as necrotic cells at 0.2 uM incubated for 24 hrs by Annexin V-FITC/PI staining based flow cytometry (reference value: 0.15 %); format: functional
HCC1806 [2] = experiment: Antitumor activity against human HCC1806 cells xenografted in Balb/c mouse at 60 mg/kg, ip bid measured after 14 days relative to control; format: functional; conditions: HCC1806, 336 h, time 14 day, read-out: TGI
HCC1806 [3] = experiment: Induction of apoptosis in human HCC1806 cells assessed as late apoptotic cells at 0.2 uM incubated for 24 hrs by Annexin V-FITC/PI staining based flow cytometry (reference value: 0.23 %); format: functional
HCC1806 [4] = experiment: Induction of apoptosis in human HCC1806 cells assessed as ROS production rate at 0.4 uM incubated for 24 hrs by DCFH-DA staining based flow cytometry (reference value: 0.23 %); format: functional
HCC1806 [5] = experiment: Induction of apoptosis in human HCC1806 cells assessed as early apoptotic cells at 0.8 uM incubated for 24 hrs by Annexin V-FITC/PI staining based flow cytometry (reference value: 0.67 %); format: functional
HCC1806 [6] = experiment: Induction of apoptosis in human HCC1806 cells assessed as ROS production rate at 0.2 uM incubated for 24 hrs by DCFH-DA staining based flow cytometry (reference value: 0.23 %); format: functional
MDA-MB-231 [7] = experiment: Induction of apoptosis in human MDA-MB-231 cells assessed as late apoptotic cells at 0.8 uM incubated for 24 hrs by Annexin V-FITC/PI staining based flow cytometry (reference value: 1.23 %); format: functional
MDA-MB-231 [8] = experiment: Induction of apoptosis in human MDA-MB-231 cells assessed as necrotic cells at 0.2 uM incubated for 24 hrs by Annexin V-FITC/PI staining based flow cytometry (reference value: 0.07 %); format: functional
[9] = Tmax in Sprague-Dawley rat at 4 mg/kg, ip; format: ADME, organism-based; conditions: in vivo
MDA-MB-231 [10] = experiment: Induction of apoptosis in human MDA-MB-231 cells assessed as late apoptotic cells at 0.4 uM incubated for 24 hrs by Annexin V-FITC/PI staining based flow cytometry (reference value: 1.23 %); format: functional
HCC1806 [11] = experiment: Induction of apoptosis in human HCC1806 cells assessed as early apoptotic cells at 0.2 uM incubated for 24 hrs by Annexin V-FITC/PI staining based flow cytometry (reference value: 0.67 %); format: functional
HCC1806 [12] = experiment: Induction of apoptosis in human HCC1806 cells assessed as decrease in STAT3 level by Western blot analysis; format: functional, cell-based; conditions: dose 0.1-0.4 µM
HCC1806 [13] = experiment: Induction of apoptosis in human HCC1806 cells assessed as late apoptotic cells at 1.6 uM incubated for 24 hrs by Annexin V-FITC/PI staining based flow cytometry (reference value: 0.23 %); format: functional
MDA-MB-231 [14] = experiment: Induction of apoptosis in human MDA-MB-231 cells assessed as early apoptotic cells at 1.6 uM incubated for 24 hrs by Annexin V-FITC/PI staining based flow cytometry (reference value: 1.16 %); format: functional
HCC1806 [15] = experiment: Antitumor activity against human HCC1806 cells xenografted in Balb/c mouse assessed as decrease in JAK2 level at 40 to 60 mg/kg, ip bid measured after 14 days by immunofluorescence based analysis; format: functional, organism-based; conditions: dose 40-60 mg/kg, time 14.0 day
MDA-MB-231 [16] = experiment: Inhibition of cell migration in human MDA-MB-231 cells; format: functional, cell-based; conditions: dose 0.05-2 µM
MDA-MB-231 [17] = experiment: Inhibition of colony formation in human MDA-MB-231 cells at 0.05 uM measured after 7 days; format: functional, cell-based; conditions: time 7.0 day
HCC1806 [18] = experiment: Upregulation of JAK2 mRNA level in human HCC1806 cells at 0.2 uM incubated for 18 to 72 hrs; format: functional, cell-based; conditions: time 18-72 hrs
[19] = Cmax in Sprague-Dawley rat at 4 mg/kg, ip; format: ADME, organism-based; conditions: in vivo
MDA-MB-231 [20] = experiment: Induction of apoptosis in human MDA-MB-231 cells assessed as viable cells at 1.6 uM incubated for 24 hrs by Annexin V-FITC/PI staining based flow cytometry (reference value: 97.54 %); format: functional; conditions: read-out: Activity
HCC1806 [21] = experiment: Antitumor activity against human HCC1806 cells xenografted in Balb/c mouse assessed as reduction in tumor weight at 40 to 60 mg/kg, ip bid measured after 14 days; format: functional, organism-based; conditions: dose 40-60 mg/kg, time 14.0 day
MDA-MB-231 [22] = experiment: Induction of apoptosis in human MDA-MB-231 cells assessed as viable cells at 0.2 uM incubated for 24 hrs by Annexin V-FITC/PI staining based flow cytometry (reference value: 97.54 %); format: functional; conditions: read-out: Activity
MDA-MB-231 [23] = experiment: Anti-proliferative activity against human MDA-MB-231 cells assessed as cell growth inhibition incubated for 72 hrs by MTT assay; format: functional, cell-based; conditions: MDA-MB-231, 72 h
[24] = Toxicity in Balb/c nude mouse assessed as histopathological change in kidney at 60 mg/kg, ip bid for 14 days consecutively; format: organism-based; conditions: in vivo, 336 h, time 14 day
MDA-MB-231 [25] = experiment: Induction of apoptosis in human MDA-MB-231 cells assessed as decrease in STAT3 level by Western blot analysis; format: functional, cell-based; conditions: dose 0.1-0.4 µM

COc1cc(Nc2cc(F)ccc2C(=O)NCCc2c[nH]c3c(F)ccc(F)c23)cc(OC)c1OC
Activity (HCC1806 [1]): 0.33%
inhibition in vivo at 60 mg/kg (HCC1806 [2]): 67.7%
Activity (HCC1806 [3]): 0.45%
Activity (HCC1806 [4]): 5%
Activity (HCC1806 [5]): 4.23%
Activity (HCC1806 [6]): 2.3%
Activity (MDA-MB-231 [7]): 2.15%
Activity (MDA-MB-231 [8]): 0.19%
Tmax [9]: 2.67 h
Activity (MDA-MB-231 [10]): 1.83%
Activity (HCC1806 [11]): 1.13%
Activity (HCC1806 [12]): Active
Activity (HCC1806 [13]): 1.92%
Activity (MDA-MB-231 [14]): 7.55%
Activity (HCC1806 [15]): Active
inhibition (MDA-MB-231 [16]): Active
inhibition (MDA-MB-231 [17]): Active
Activity (HCC1806 [18]): Active
Cmax [19]: 229 ng/mL
viability at 1.6 µM (MDA-MB-231 [20]): 87.4%
Activity (HCC1806 [21]): Active
viability at 0.2 µM (MDA-MB-231 [22]): 96.1%
IC50 (MDA-MB-231 [23]): 190 nM
Activity [24]: Non-Toxic
Activity (MDA-MB-231 [25]): Active
